Measurements taken from patent US20090239926A1, “METHODS FOR THE TREATMENT OF PSORIASIS OR PSORIATIC ARTHRITIS USING CYCLOPROPYL-N-CARBOXAMIDE” (priority 2008, published 2009).

Test system: mAB/LPS-induced experimental arthritis in male BALB/c mice
Assay: mAb/LPS-induced mice arthritis model
Assay type: in vivo
Conditions: Enbrel 5 mg/kg/day IP
Description: Treatment Regimen: Compound A was administered by oral gavage (PO), using a suitable stainless steel feeding needle. Enbrel (Reference Item) was administrated by intraperitoneal (IP) injections. Compound A was first administered on study Day 3 (one hour prior to the single LPS injection) and thereafter on Days 4, 5, 6, 7, 8, 9, 10, 11, 12 and 13 (total of 11 successive treatment days) at 1, 5 and 25 mg/kg once daily. Compound A treated groups comprised n=8 BALB/c male mice per dosing group. In addition, two equally sized groups were treated with either Enbrel (5 mg/kg/day, Reference Item), or a solution of 0.5% Na CMC/0.25% Tween 80 (PO, 5 ml/kg, Vehicle Control).
Arthritis Reactions: Both hind paws (left and right) of each animal were examined for signs of arthritogenic responses prior to arthritis induction (Day 0) and thereafter on study days 4, 5, 6, 7, 9, 11 & 14 as selected by the Sponsor. Arthritis reactions were scored and recorded according to a 0-4 scale in ascending order of severity (based on Morwell MD Biosciences Inc. brochure) as shown in Table 1.
Measurements of Experimental Arthritis: Hind paw thickness was determined on eight days using a Mitutoyo Electronic Digital Caliper (on Days 0, 4, 5, 6, 7, 9, 11 and 14) and presented as mean group values of the average for both left and right hind paws.

[1] = Day 0 (prior to arthritis induction)

## Enbrel
[1]
  Arthritis Scoring, mean of both hind paws (0-4 scale): 0
  Hind Paws Thickness, group mean: 2.2 mm
Day 4
  Arthritis Scoring, mean of both hind paws (0-4 scale): 0
  Hind Paws Thickness, group mean: 2.2 mm
  Percentage Change in Hind Paw Thickness vs. Study Commencement (Day 0), group mean: 0%
Day 5
  Arthritis Scoring, mean of both hind paws (0-4 scale): 1
  Hind Paws Thickness, group mean: 2.3 mm
  Percentage Change in Hind Paw Thickness vs. Study Commencement (Day 0), group mean: 6%
Day 6
  Arthritis Scoring, mean of both hind paws (0-4 scale): 1
  Hind Paws Thickness, group mean: 2.5*↓ mm
  Percentage Change in Hind Paw Thickness vs. Study Commencement (Day 0), group mean: 13%
Day 7
  Arthritis Scoring, mean of both hind paws (0-4 scale): 1**↓
  Hind Paws Thickness, group mean: 2.5**↓ mm
  Percentage Change in Hind Paw Thickness vs. Study Commencement (Day 0), group mean: 12**↓ %
Day 9
  Arthritis Scoring, mean of both hind paws (0-4 scale): 1***↓
  Hind Paws Thickness, group mean: 2.3**↓ mm
  Percentage Change in Hind Paw Thickness vs. Study Commencement (Day 0), group mean: 7**↓ %
Day 11
  Arthritis Scoring, mean of both hind paws (0-4 scale): 0***↓
  Hind Paws Thickness, group mean: 2.3**↓ mm
  Percentage Change in Hind Paw Thickness vs. Study Commencement (Day 0), group mean: 4**↓ %
Day 14
  Arthritis Scoring, mean of both hind paws (0-4 scale): 0**↓
  Hind Paws Thickness, group mean: 2.3**↓ mm
  Percentage Change in Hind Paw Thickness vs. Study Commencement (Day 0), group mean: 4**↓ %
